Patent publication US20180133212A1, “COMBINATION OF A BCL-2 INHIBITOR AND A BROMODOMAIN INHIBITOR FOR TREATING CANCER” (Gilead Sciences, Inc., priority 2016, published 2018)
Several values for one entry are separate records, joined by “and”; a condition that tells them apart may be missing. Identical values can stand only once. Like-named read-outs stand apart in the source and are kept apart here.

What was measured:
[1] = Clinically relevant exposures (clinical plasma exposure, protein adjusted); type: in vivo
Experimental: (§1) Clinically relevant doses of Compound A were calculated.
A set of data was selected from the synergy screening to represent clinically relevant concentration ranges of venetoclax and Compound A. […] Cmin and Ctrough of Compound A were similarly adjusted.

DLBCL and FL cell lines = assay: Annexin V apoptosis assay (flow cytometry); type: cell-based, human
Experimental: Apoptosis induced by Compound A was measured by Annexin V staining as detected by flow cytometry. Compound A was diluted two-fold in duplicate to a starting concentration of 5 mM in 100% DMSO, and then serially diluted by three-fold in 100% DMSO in a 96 well plate format to achieve a 500× dose range of 5 mM to 0.76 μM. Serially-diluted Compound A was then further diluted 1:5 in sterile water to generate a 100× stock and finally diluted 1:100 into assay plate wells containing 200 μL of cells. The final concentration of DMSO was 0.2% in 200 μL in the assay wells and the dose range of Compound A was 10 μM to 1.5 nM. Cells were plated at 20,000-80,000 cells per well and assay plates were incubated after compound addition at 37° C. with 5% CO2 for 3 days in growth medium appropriate for each cell line. Control wells on all assay plates included 0.2% DMSO (0% apoptosis on day 3), 1 μM Velcade®, and 1 μM staurosporine (apoptosis control on day 3). Velcade® and staurosporine were used as benchmarks to ensure apoptosis could be achieved in each cell line.
After 72 to 96 hours, the cell compound mixture was transferred to a 96-well deep well conical bottom plate, centrifuged at 300×g, and cell pellets were re-suspended in DPBS. Plates were centrifuged at 300×g, supernatant was decanted, and cell pellets were re-suspended in 500 μl of pre-diluted LIVE/DEAD® Fixable Aqua Dead Cell Stain for 30 minutes at room temperature protected from light. Assay plates were centrifuged at 300×g, supernatant was decanted, and cell pellets were washed twice in 500 μL of DPBS containing 4% FBS. The washed pellets were re-suspended in 100 μL DPBS containing 4% FBS, 5 μL of Annexin V APC was added to each well, and assay plates were incubated for 30 minutes at room temperature, protected from light. Assay plates were washed twice with 500 μL of DPBS containing 4% FBS per well, and cell pellets were finally re-suspended in 250 μL of DPBS containing 4% FBS.
Flow cytometric sampling of 20,000 total events within a forward scatter and side-scatter gate (P1) per well were collected on a BD FACS Canto II instrument with DIVA software (San Jose, Calif.) using a high throughput screen auto-sampler for analysis of apoptosis. Within the P1 gate Annexin V^+/LIVE/DEAD^− and Annexin V^+/LIVE/DEAD^+ cells were digitally monitored. Single- or double-labeled cells were gated, percentages of Annexin V-positive cells in each population were recorded and combined, and data were extracted to a flow cytometry standard file (fcs). Mean percentages of Annexin V-positive cells were determined for the positive control (Velcade® and staurosporine at 1 μM) and negative wells (0.2% DMSO) to ensure the assay performed as expected for each cell line on each experimental day.
EC50 values for each compound were calculated based on log concentration of drug and percent Annexin V-positive cells using a four-parameter logistical fit equation in Prism 6.01 of the GraphPad software package. The percentage of apoptosis at EC50 was interpolated from the curve fit for each cell line. […] For an experiment to be valid, the % baseline apoptosis for a given cell line was required to be <35%.
(§2) The activity of Compound A to induce apoptosis or inhibit cell growth was assessed across a panel of DLBCL cell lines. DLBCL cell lines were subjected to a ten point dose response of Compound A (range 0.5 nM-10,000 nM, 3× dilution series) and assessed for cell growth inhibition by CTG or apoptosis by AnnexinV staining after three or four days.

[2] = Protein shift: free fraction in human plasma / cell culture media; type: in vitro ADME
Experimental: as §1
A set of data was selected from the synergy screening to represent clinically relevant concentration ranges of venetoclax and Compound A. The average concentration of venetoclax (Cav) was estimated at the 400 mg dose adjusted for protein binding using empirically determined free fraction in human plasma/cell culture media. Cmin and Ctrough of Compound A were similarly adjusted.

DLBCL cell lines = assay: Single agent cell growth assessment (Cell Titer Glo); type: cell-based; conditions: Homo sapiens, 96 h, CTG, three or four days
Experimental: Compound A was serially diluted by three-fold in 100% DMSO in a 96 well plate format in duplicate dose curves to achieve a dose range of 10 mM to […] as a 1000× stock. Serially-diluted 1000× Compound A was then further diluted 1:100 in RPMI-1640 without additives to generate a 10× stock and finally diluted 1:10 into assay plate wells containing 100 μL of cells. The final concentration of DMSO was 0.1% in 111 μL of final volume in the assay wells and the dose range of Compound A was 10 μM to 0.5 nM. […] Cell viability was assessed using Cell Titer Glo (CTG, Promega, Madison, Wis.) following the manufacturer's protocol. Luminescence was measured on an EnSpire Multimode Plate Reader (Perkin Elmer, Waltham, Mass., Model 2300-001M).
A replicate assay plate was created at study initiation, processed immediately for cell viability by CTG, and these values represented 0% growth (day 0). […] Curve fittings were applied with a four parameter variable slope model and the following three calculations were determined using the curve fits. […]
as §2

Myc protein = assay: Reduction of Myc protein expression by Compound A; type: cell-based, human; conditions: subset of cell lines of FIG. 1, dose-dependent
[3] = ABT-199, 400 mg dose, Phase I NHL study; cited from earlier work

Which “CCM adjusted Cave” value ([1]; human, in vivo) does the source give for `Cc1noc(C)c1-c1cc(C(O)(c2ccccn2)c2ccccn2)c2nc(C3CC3)[nH]c2c1` [Compound A] here?
Its value is 40 nM.

And the “CCM adjusted Cmin” value ([1]; human, in vivo)?
The value was 10 nM.

And the Cmax ([1]; human, in vivo, 4 mg, CCM protein adjusted CCM Cmax)?
Its Cmax is 111 nM.

What about the Cmax ([1]; human, in vivo, 4 mg, exposures Cmax) of the same compound?
The Cmax was 279 ng/mL and 638 nM.

What about the Cmax ([1]; human, in vivo, CCM adjusted Cmax) of the same compound?
The Cmax was 90 nM.

And the Cmax ([1]; human, in vivo, protein adjusted Cmax concentration)?
Its Cmax is roughly 113 nM.

And the EC50 (DLBCL and FL cell lines; Homo sapiens, one responding cell line with EC50 above 113 nM)?
Its EC50 is 2500 nM.

And the “% apoptosis by 1 μM” value (DLBCL and FL cell lines; cell lines that did not undergo apoptosis (10 of 21; 8 of the FIG. 1 subset))?
Its value is less than 30%.

And the “% Annexin V positive after treatment with 1 μM” value (DLBCL and FL cell lines; eight cell lines with EC50 <113 nM)?
Its value is greater than 30%.

What about the EC50 (DLBCL and FL cell lines; individual responding cell lines, three or four days) of the same compound?
The EC50 was < 113 nM and 274 nM and 881 nM.

And the “lines refractory to Bcl-2 inhibition that undergo apoptosis” value (DLBCL and FL cell lines; of the 8 lines refractory to venetoclax (FIG. 4))?
Its value is 6.

And the “number of cell lines that underwent apoptosis” value (DLBCL and FL cell lines; of twenty-one DLBCL and FL cell lines, single agent)?
Its value is 11.

What about the “subset of DLBCL cell lines in which apoptosis was induced” value (DLBCL and FL cell lines; share of DLBCL cell lines) of the same compound?
The value was 58%.

And the CCM/buffer [2]?
The CCM/buffer was “CCM/buffer 67%”.

And the HP/buffer ([2]; human)?
The HP/buffer was “HP/buffer 11.7”.

What about the EC50 (DLBCL cell lines; DLBCL cell lines of FIG. 1, read-out: growth inhibition EC50 range across cell lines) of the same compound?
The EC50 was 12 to 72 nM.

What about the EC50 (DLBCL cell lines; mean over subset of cell lines of FIG. 1, read-out: growth inhibition mean EC50) of the same compound?
The EC50 was 40 nM.

And the EC50 (Myc protein; Homo sapiens)?
Its EC50 is no more than 155 nM.

What about the EC50 (Myc protein) of the same compound?
The EC50 was 284 nM.

Which Cmax ([1]; ABT-199, 400 mg dose, cell culture media adjusted, read-out: CCM protein adjusted Cmax) does the source give for `CC1(C)CCC(CN2CCN(c3ccc(C(=O)NS(=O)(=O)c4ccc(NCC5CCOCC5)c([N+](=O)[O-])c4)c(Oc4cnc5[nH]ccc5c4)c3)CC2)=C(c2ccc(Cl)cc2)C1` [venetoclax, reference compound] here?
The Cmax was 536 nM.

What about the Cmax ([1]; human, plasma, 400 mg, ABT-199, 400 mg dose, cell culture media adjusted, read-out: CCM protein adjusted Cmax) of the same compound?
Its Cmax is 536 nM.

What about the Cmax ([1]; human, plasma, 400 mg, ABT-199, 400 mg dose, read-out: exposures Cmax) of the same compound?
The Cmax was 2300 nM.

What about the CCM/buffer ([2]; free fraction, cell culture media) of the same compound?
The CCM/buffer was “CCM/buffer 0.44%”.

What about the HP/buffer ([2]; free fraction, human plasma) of the same compound?
The HP/buffer was “HP/buffer 0.10%”.

What about the “exposures Cmax” value [3] of the same compound?
The value was 2000 ng/mL.

What about the “exposures Cmin” value [3] of the same compound?
The value was 200 ng/mL.
